Reference: patent US20240043427A1 (Gilead Sciences, Inc., priority 2020, published 2024)
Values joined by “and” are separate entries in the source; they are usually repeats but may differ in a detail not shown here. Identical values can stand only once. Like-named read-outs stand apart in the source and are kept apart here.

What was measured:
CD73 [1] = molecular target: T1, CD73 (Homo sapiens (Human), UniProt P21589); test: MDA-MB-231 Cell Based CD73 Activity Assay (DMEM); settings: MDA-MB-231-GFP cells, DMEM medium with 10% human plasma, 200 uM AMP
T1 sequence (P21589 27-574): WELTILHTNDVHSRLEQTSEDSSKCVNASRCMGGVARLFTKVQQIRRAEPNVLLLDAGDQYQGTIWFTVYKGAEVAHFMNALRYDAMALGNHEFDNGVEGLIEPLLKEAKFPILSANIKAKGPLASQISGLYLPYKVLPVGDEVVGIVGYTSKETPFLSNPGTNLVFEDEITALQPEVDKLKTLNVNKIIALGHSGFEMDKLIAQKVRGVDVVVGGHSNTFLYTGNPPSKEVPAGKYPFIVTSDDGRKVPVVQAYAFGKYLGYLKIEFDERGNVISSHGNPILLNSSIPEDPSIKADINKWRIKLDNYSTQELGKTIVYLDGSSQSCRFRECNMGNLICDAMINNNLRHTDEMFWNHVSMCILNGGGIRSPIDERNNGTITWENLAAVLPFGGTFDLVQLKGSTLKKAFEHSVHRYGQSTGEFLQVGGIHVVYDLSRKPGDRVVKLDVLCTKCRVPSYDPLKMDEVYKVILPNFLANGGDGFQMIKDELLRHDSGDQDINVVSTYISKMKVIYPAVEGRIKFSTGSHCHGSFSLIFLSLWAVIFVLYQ

CD73 [2] = molecular target: T1, CD73; test: MDA-MB-231 Cell Based CD73 Activity Assay; settings: MDA-MB-231-GFP cells, RPMI medium with 10% human plasma, 200 uM AMP
CD73 [3] = molecular target: T1, CD73; test: CD73 Biochemical IC50 Assay; settings: CD73 0.3 nM, AMP 15 uM, 25 mM Tris pH 7.4, 5 mM MgCl2
Description: CD73 Biochemical IC50 Assay
Compound serial dilutions were pre-spotted into Thermo Nunc assay plate. 50 μL CD73 enzyme buffer (CD73 purchased from R&D system=0.6 nM, 25 mM Tris, pH 7.4, 5 mM MgCl2) was added into the assay plate and incubated for 15 mins. […] The samples were run using Rapid fire.

CD73 [4] = molecular target: T1, CD73; type: biochemical; settings: 1 mM NaH2PO4 in enzyme buffer, CD73 0.3 nM, AMP 15 uM

| Structure (SMILES) | EC50 (CD73 [1]) | EC50 (CD73 [2]) | IC50 (CD73 [3]) | IC50 (CD73 [4]) |
| --- | --- | --- | --- | --- |
| O=c1[nH]cc(-c2cc(N3CCCC3)c3nccn3n2)c(=O)[nH]1 [Example 9, 5-(8-pyrrolidin-1-ylimidazo[1,2-b]pyridazin-6-yl)-1H-pyrimidine-2,4-dione] | 58.8 nM | 29.1 nM | 106 nM | 19.4 nM |
| O=c1[nH]cc(-c2cc([C@H]3C[C@@H]3c3ccccc3)c3nccn3n2)c(=O)[nH]1 (racemic) [Example 7, 5-(8-((1S,2S)-2-phenylcyclopropyl)imidazo[1,2-b]pyridazin-6-yl)pyrimidine-2,4-(1H,3H)-dione and 5-(8-((1R,2R)-2-phenylcyclopropyl)imidazo[1,2-b]pyridazin-6-yl)pyrimidine-2,4-(1H,3H)-dione] | 4.15 nM | 2.08 nM and 1.88 nM | 13.6 nM and 13 nM | 0.94 nM |
| N#Cc1ccc([C@H]2C[C@@H]2c2cc(-c3c[nH]c(=O)[nH]c3=O)nn3ccnc23)cc1F (racemic) [Example 115, 4-((1S,2S)-2-(6-(2,4-dioxo-1,2,3,4-tetrahydropyrimidin-5-yl)imidazo[1,2-b]pyridazin-8-yl)cyclopropyl)-2-fluorobenzonitrile] | 12.9 nM | 4.21 nM | 13.3 nM | 1.77 nM |
| CC1(C)CN(c2cc(-c3c[nH]c(=O)[nH]c3=O)nn3ccnc23)C1 [Example 63, 5-(8-(3,3-dimethylazetidin-1-yl)imidazo[1,2-b]pyridazin-6-yl)pyrimidine-2,4(1H,3H)-dione] | 47.4 nM | 34.7 nM | 70.5 nM | 29.1 nM |
| O=c1[nH]cc(-c2cc([C@H]3C[C@@H]3c3ccc4c(c3)OC(F)(F)O4)c3nccn3n2)c(=O)[nH]1 (racemic) [Example 110, 5-(8-((1S,2S)-2-(2,2-difluorobenzo[d][1,3]dioxol-5-yl)cyclopropyl)imidazo[1,2-b]pyridazin-6-yl)pyrimidine-2,4(1H,3H)-dione and 5-(8-41R,2R)-2-(2,2-difluorobenzo[d][1,3]dioxol-5-yl)cyclopropyl)imidazo[1,2-b]pyridazin-6-yl)pyrimidine-2,4(1H,3H)-dione] | 28.7 nM | 7.5 nM | 31.4 nM | 2.96 nM |
| O=c1[nH]cc(-c2cc([C@H]3C[C@@H]3c3ccc(F)cc3)c3nc(C4CC4)cn3n2)c(=O)[nH]1 (racemic) [Example 86, 5-[2-cyclopropyl-8-[(1S,2S)-2-(4-fluorophenyl)cyclopropyl]imidazo[1,2-b]pyridazin-6-yl]-1H-pyrimidine-2,4-dione and 5-[2-cyclopropyl-8-[(1R,2R)-2-(4-fluorophenyl)cyclopropyl]imidazo[1,2-b]pyridazin-6-yl]-1H-pyrimidine-2,4-dione] | 16.6 nM | 21.8 nM | 152 nM | 5.66 nM |
| N#Cc1cc(F)cc([C@H]2C[C@@H]2c2cc(-c3c[nH]c(=O)[nH]c3=O)nn3ccnc23)c1 (racemic) [Example 85, 3-[(1S,2S)-2-[6-(2,4-dioxo-1H-pyrimidin-5-yl)imidazo[1,2-b]pyridazin-8-yl]cyclopropyl]-5-fluoro-benzonitrile and 3-[(1R,2R)-2-[6-(2,4-dioxo-1H-pyrimidin-5-yl)imidazo[1,2-b]pyridazin-8-yl]cyclopropyl]-5-fluoro-benzonitrile] | 17.7 nM | 6.08 nM | 43.3 nM | 1.34 nM |
| O=c1[nH]cc(-c2cc(N3CC(C(F)(F)F)C3)c3nccn3n2)c(=O)[nH]1 [Example 62, 5-(8-(3-(trifluoromethyl)azetidin-1-yl)imidazo[1,2-b]pyridazin-6-yl)pyrimidine-2,4(1H,3H)-dione] | 32.2 nM | 25.1 nM | 27.2 nM | 8.47 nM |
| O=c1[nH]cc(-c2cc(C3CC3)c3nccn3n2)c(=O)[nH]1 [Example 22, 5-(8-cyclopropylimidazo[1,2-b]pyridazin-6-yl)pyrimidine-2,4(1H,3H)-dione] | 104 nM | 46.3 nM and 45.1 nM | 55.8 nM and 64.9 nM | 35.5 nM |
| O=c1[nH]cc(-c2cc(N3CCC(F)(F)C3)c3nccn3n2)c(=O)[nH]1 [Example 79, 5-[8-(3,3-difluoropyrrolidin-1-yl)imidazo[1,2-b]pyridazin-6-yl]-1H-pyrimidine-2,4-dione] | 20.8 nM | 11.7 nM | 25.2 nM | 4.58 nM |
| O=c1[nH]cc(-c2cc(N3C[C@H](F)[C@@H](F)C3)c3nccn3n2)c(=O)[nH]1 (racemic) [Example 73, 5-[8-[(3S,4S)-3,4-difluoropyrrolidin-1-yl]imidazo[1,2-b]pyridazin-6-yl]-1H-pyrimidine-2,4-dione and 5-[8-[(3R,4R)-3,4-difluoropyrrolidin-1-yl]imidazo[1,2-b]pyridazin-6-yl]-1H-pyrimidine-2,4-dione] | 31.7 nM | 17.4 nM | 39.7 nM | 9.87 nM |
